Measurements taken from US20170007610A1, “NOVEL HETEROBICYCLIC COMPOUNDS AS KAPPA OPIOID AGONISTS” (priority 2014, published 2017).

Tests used:
kappa opioid receptor [1] = molecular target: T1, kappa opioid receptor (Mus musculus, UniProt P33534); test: Ex-vivo KOR agonistic activity, electrically stimulated mouse vas deferens (MVD) model
T1 construct: from tissue; host or cells: mouse vas deferens (male Swiss Albino mice)
Procedure: a) Ex-Vivo KOR Agonistic Activity Testing, Using Electrically Stimulated Mouse Vas Deferens (MVD) Model:
Ex-vivo, the kappa opioid receptor agonistic activity of test compounds were tested on the electrically stimulated mouse vas deferens (MVD) preparations (Henderson et al., Br. J. Pharmacol., 46, 764-766, 1972; Portoghese et al., Life Sci. 36, 801-805, 1985) and IC50 were determined. In general, vas deferentia were taken from male Swiss Albino mice (30-40 g) and suspended in 8 ml organ baths, at 31° C., containing modified Krebs-Henseleit solution, without magnesium sulphate. Each vas deferens was equilibrated for 45 min at 2.6 mN tension and then stimulated at supramaximal voltage with five 1 ms pulses, at a frequency of 0.1 Hz. Concentration-response curves were determined by cumulative dosing. Inhibitory Concentration, 50% (IC50) values were determined by Sigmoidal dose-response (variable slope) equation, using Prizm v 6.01. The kappa opioid receptor specificity was determined by rightward shift in concentration-response curves in presence of 1 nM norbinaltorphimine (norBNI), a selective kappa opioid receptor antagonist.

ICR mice [2] = test: Assessment of CNS effects (spontaneous locomotion, sedation, catalepsy), threshold dose; assay type: in vivo; conditions: lowest dose which shows pharmacodynamic effect (locomotion, sedation, catalepsy), oral or i.v.
Procedure: (§1) All the animal experiments were carried out in ICR mice, bred in-house. Animals were housed in groups of 6 animals per cage, for a week, in order to habituate them to vivarium conditions (25±4° C., 60-65% relative humidity, 12:12 h light: dark cycle, with lights on at 7.30 am). All the animal experiments were carried out according to the internationally valid guidelines following approval by the ‘Zydus Research Center animal ethical committee’.
Assessment of CNS Effects of Test Compounds
Test compounds were dissolved in normal saline injected by oral or i.v., routes in ICR mice tail vein. […] The dose is scaled down or up if pharmacodynamic effect is present or absent respectively.

ICR mice [3] = test: Acetic acid-induced writhing model; assay type: in vivo; conditions: Mus musculus, 0.25 h, acetic acid induced pain model, oral or i.v. administration, writhes for 15 min, read-out: In-vivo ED50
Procedure: as §1
Following oral or i.v. administration of test compounds, mice are rested for 5 min before i.p. injection with 10 ml/kg of 0.6% v/v acetic acid in normal saline. […] A writhe is defined as a constriction of the abdominal area, often with extension of the hind legs. Percentage maximum possible effect (MPE) was calculated as below:
% MPE=100−[(No. of writhes in treated mice/No. of writhes in vehicle treated mice)]×100
ED50 dose is determined using GraphPad Prism.

kappa opioid receptor [4] = molecular target: T2, kappa opioid receptor (Homo sapiens, UniProt P41145); test: Invitro KOR agonistic activity, cAMP based functional assay; assay type: cell-based
T2 construct: grown in complete Ham's F-12 medium
T2 sequence (P41145 whole entry): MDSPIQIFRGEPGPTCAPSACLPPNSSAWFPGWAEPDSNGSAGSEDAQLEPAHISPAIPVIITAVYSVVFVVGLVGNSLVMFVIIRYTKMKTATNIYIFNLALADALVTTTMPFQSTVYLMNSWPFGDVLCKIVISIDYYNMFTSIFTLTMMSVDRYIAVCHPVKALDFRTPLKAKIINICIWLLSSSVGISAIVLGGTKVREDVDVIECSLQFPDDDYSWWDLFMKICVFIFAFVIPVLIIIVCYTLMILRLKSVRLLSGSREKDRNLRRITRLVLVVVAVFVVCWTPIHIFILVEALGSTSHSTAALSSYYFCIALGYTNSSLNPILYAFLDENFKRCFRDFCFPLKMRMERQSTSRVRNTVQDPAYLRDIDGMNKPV

T1 sequence (P33534 whole entry): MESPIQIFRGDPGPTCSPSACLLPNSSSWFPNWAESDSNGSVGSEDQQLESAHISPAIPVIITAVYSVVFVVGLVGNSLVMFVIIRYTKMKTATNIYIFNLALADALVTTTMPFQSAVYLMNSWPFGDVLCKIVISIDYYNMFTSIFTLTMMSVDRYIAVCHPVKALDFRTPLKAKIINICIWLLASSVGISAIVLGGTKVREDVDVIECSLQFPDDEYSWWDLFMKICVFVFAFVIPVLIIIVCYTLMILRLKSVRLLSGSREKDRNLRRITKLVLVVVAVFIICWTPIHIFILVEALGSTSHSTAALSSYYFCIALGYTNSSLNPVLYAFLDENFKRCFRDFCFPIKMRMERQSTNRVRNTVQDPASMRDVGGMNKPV

| SMILES | IC50 (kappa opioid receptor [1]) [nM] | CNS TD (ICR mice [2]) [mg/kg] | ED50 (ICR mice [3]) [mg/kg] | EC50 (kappa opioid receptor [4]) [nM] |
| --- | --- | --- | --- | --- |
| CN(C(=O)COc1ccc(NS(C)(=O)=O)c2ncccc12)[C@H](CN1CC[C@H](O)C1)c1cccc(O)c1 [Compound 48, N-((S)-1-(3-hydroxyphenyl)-2-((S)-3-hydroxypyrrolidin-1-yl)ethyl)-N-methyl-2-((8-(methylsulfonamido)quinolin-5-yl)oxy) acetamide] | 1.3 | 30 | 3.1 | 0.021 |
| CN(C(=O)COc1ccc(NS(C)(=O)=O)c2ncccc12)[C@H](CN1CC[C@H](O)C1)c1cccc(N)c1 [Compound 43, N-((S)-1-(3-aminophenyl)-2-((S)-3-hydroxypyrrolidin-1-yl)ethyl)-N-methyl-2-((8-(methylsulfonamido)quinolin-5-yl)oxy) acetamide] | 1.6 | 30 | 2.1 | 0.006 |
| CN(C(=O)COc1ccc(NS(C)(=O)=O)c2ncccc12)[C@H](CN1CC[C@H](O)C1)c1cccc(NS(C)(=O)=O)c1 [Compound 44] | 5.4 | 10 | 2.3 | 0.036 |
| CN(C(=O)COc1ccc(NS(C)(=O)=O)c2c1CCCN2)[C@H](CN1CC[C@H](O)C1)c1ccccc1 [Compound 15, N-((S)-2-((S)-3-hydroxypyrrolidin-1-yl)-1-phenylethyl)-N-methyl-2-((8-(methylsulfonamido)-1,2,3,4-tetrahydroquinolin-5-yl)oxy)acetamide] | 0.9 | 10 | 0.92 | 0.003 |
| CN(C(=O)COc1ccc(NS(=O)(=O)N(C)C)c2c1CCCN2)[C@H](CN1CC[C@H](O)C1)c1ccccc1 [Compound 32, 2-((8-((N,N-dimethylsulfamoyl)amino)-1,2,3,4-tetrahydroquinolin-5-yl)oxy)-N-((S)-2-((S)-3-hydroxypyrrolidin-1-yl)-1-phenylethyl)-N-methylacetamide] | 0.49 | 100 | 4.7 | 0.013 |
